The values below are quoted from earlier work in article PMC7060171, “Evaluation of Radiation dosimetry of ^99mTc-HYNIC-PSMA and imaging in prostate cancer” (Scientific Reports, 2020).

Conditions in one data set: not given
Consider `O=C([O-])CN(CCN(CC(=O)[O-])Cc1cc(CCC(=O)NCCCCCC(=O)NCCCC[C@H](NC(=O)N[C@@H](CCC(=O)O)C(=O)O)C(=O)O)ccc1[O-])Cc1cc(CCC(=O)O)ccc1[O-].[68Ga+3].[OH3+]` [^68Ga-PSMA-11], for which the Effective dose is recorded as 2.36E-02 mSv/MBq.

As to `O=C(O)CC[C@H](NC(=O)N[C@@H](CCC(=O)N[C@@H](CCCCN(Cc1nccn1CC(=O)N(CC(=O)O)CC(=O)O)Cc1nccn1CC(=O)N(CC(=O)O)CC(=O)O)C(=O)O)C(=O)O)C(=O)O.[99Tc+4].[CH-]=O.[CH-]=O.[CH-]=O.[Cl-]` [^99mTc-MIP-1404], the Effective dose is 8.8E-03 mSv/MBq.

Regarding `O=C(O)CC[C@H](NC(=O)N[C@@H](CCCCNC(=O)[C@H](Cc1ccc2ccccc2c1)NC(=O)c1ccc(CNC(=O)[C@H](CCC(=O)O)NC(=O)[C@H](CCC(=O)O)NC(=O)c2ccc([18F])nc2)cc1)C(=O)O)C(=O)O` [^18F-PSMA-1007], the Effective dose is 2.2E-02 mSv/MBq.

Regarding `O=C(O)CC[C@H](NC(=O)N[C@@H](CCCCNC(=O)c1ccc([18F])nc1)C(=O)O)C(=O)O` [^18F-DCFPyL], the Effective dose is given as 1.39E-02 mSv/MBq.

Still in this data set, the particulars now being: conventional 99mTc-labelled radiopharmaceuticals used in SPECT/CT scans.
With `O=P(O)(O)CP(=O)(O)O` (99mTc complex, metal not drawn) [MDP], the Effective dose is on record as 5.68E-03 mSv/MBq.

Turning to `[C-]#[N+]CC(C)(C)OC.[C-]#[N+]CC(C)(C)OC.[C-]#[N+]CC(C)(C)OC.[C-]#[N+]CC(C)(C)OC.[C-]#[N+]CC(C)(C)OC.[C-]#[N+]CC(C)(C)OC.[Tc]` [MIBI], the Effective dose was 7.83E-03 mSv/MBq.
